Literature values, collected in patent US20100286262A1, “PTGS2 HAPLOTYPES” (priority 2007, published 2010).
Where two headings read alike, the source gives them in different places.

Key:
[1] = adjuvant setting; cited from earlier work
[2] = test system: colorectal cancer (CRC) risk; conditions: cited from earlier work

Structure (SMILES)	Cardiotoxicity [1]	RR of CRC with aspirin use ([2]; cancers with weak or absent COX-2 expression, 0.73-1.26)	RR of CRC with aspirin use ([2]; tumours overexpressing COX-2, 0.52-0.78)
O=c1[nH]cc(F)c(=O)[nH]1 [5-fluorouracil]	2-4%		
CC(=O)Oc1ccccc1C(=O)O [aspirin]		0.96	0.64
